Results on 3 molecules are retold here after patent US4624960A, “Sedative having analgesic and bradycardiac properties” (Boehringer Ingelheim Vetmedica GmbH, priority 1984, dated 1986).

The structures appear in SMILES notation. Where a name gives a salt, the structure may show the parent alone.

A short description of experiment [1]: Writhing Test (analgesic effect). It is filed as in vivo.
The nature of the next experiment: Bradycardiac Effect. The class given is in vivo.
Another experiment concerns Horse. Kind of experiment: Sedation and analgesia in horse, activity vs dosage. The class given is in vivo. The source says: (§1) The following table sets forth the correlation between activity and dosage of 2-[(2-bromo-6-fluorophenyl)-imino]-imidazolidine hydrochloride: […]
Another experiment has as its system Cattle (calf). Description: Sedation and analgesia in cattle (calf), activity vs dosage. It is filed as in vivo. The note with it: for Effect: analgesia / Effect: sedation / Effect: sleep: cattle (calf).
Text: as §1

The next experiment concerns Calf. Description: Premedication for surgical intervention (hernia umbilicalis) in calf. The class given is in vivo. The conditions noted are these: 0.01 mg/kg i.v., operation 20 minutes after injection.
Text: as §1

In a further experiment the test system is Pig. Description: Sedation and analgesia in pig, activity vs dosage. The class given is in vivo.
Text: as §1

The next experiment has as its system Poultry. Description: Sedation in poultry, activity vs dosage. The class given is in vivo.
Text: as §1

A short description of experiment [2]: Bradycardiac effect (general statement). The conditions noted are these: in vivo.

For the molecule `Clc1cccc(Cl)c1N=C1NCCN1` [2-[(2,6-Dichlorophenyl)-imino]-imidazolidine.HCl, reference compound], the 50% effect level in experiment [1] (ED50) was put at a dose of 17 µg/kg. For the same molecule, in “Bradycardiac Effect”, the ED60 stood at 10 µg/kg.
Consider `Cl.Fc1cccc(Br)c1N=C1NCCN1` [2-[(2-Bromo-6-fluorophenyl)-imino]-imidazolidine hydrochloride], for which, in experiment [1], the 50% effect level (ED50) was put at a dose of 4 µg/kg. In the experiment “Bradycardiac Effect”, this molecule came in with an ED60 of 3 µg/kg. For the same molecule, the “Effect: analgesia” value was “no” with Horse (0.03 mg/kg i.m.); “slight” with Horse (0.03 mg/kg i.v.); “rather weaker analgesia” in the experiment with Horse (0.06 mg/kg i.m.); “good” in the experiment with Horse (0.06 mg/kg i.v.); “good” with Horse (0.07 mg/kg i.v.); “good analgesia” with Horse (0.08 mg/kg i.m.). Besides, the “Effect: analgesia” value is recorded as “no analgesia” in the experiment with Cattle (calf) (0.006 mg/kg i.v., i.m.); “as with i.v” in the experiment on Cattle (calf) (0.009 mg/kg i.m., i.v. result: not total); “not total” with Cattle (calf) (0.009 mg/kg i.v.); “moderate analgesia” in the experiment on Cattle (calf) (0.01 mg/kg i.m.); “moderate analgesia” in the experiment on Cattle (calf) (0.01 mg/kg i.v.); “weak” in the experiment with Pig (0.01-0.03 mg/kg i.m.). Also, the “Effect: analgesia” value with Pig (0.03-0.06 mg/kg i.m.) is reported as “rather weaker”; in the experiment on Pig (0.06-0.1 mg/kg i.m.), “good”. The “Effect: sedation” value in the experiment on Horse (0.03 mg/kg i.m.) was “light sedation”; in the experiment on Horse (0.03 mg/kg i.v.) it was “light sedation”; in the experiment with Horse (0.06 mg/kg i.m.), “moderate sedation”; with Horse (0.06 mg/kg i.v.), “strong sedation”; with Horse (0.07 mg/kg i.v.), “strong sedation”; with Horse (0.08 mg/kg i.m.), “strong sedation”. Further, the “Effect: sedation” value in the experiment on Cattle (calf) (0.006 mg/kg i.v., i.m.) was “low-level sedation”; with Cattle (calf) (0.008 mg/kg i.m.) it was “good sedation”; in the experiment on Cattle (calf) (0.009 mg/kg i.m.), “very good sedation”; in the experiment on Cattle (calf) (0.009 mg/kg i.v.) it was “very good sedation”; with Cattle (calf) (0.01 mg/kg i.m.), “very good sedation”; in the experiment on Cattle (calf) (0.01 mg/kg i.v.) it was “very good sedation”. In addition, the “Effect: sedation” value in the experiment on Pig (0.01-0.03 mg/kg i.m.) is reported as “weak sedation”; in the experiment with Pig (0.01-1.0 mg/kg i.m.), “strong sedation”; in the experiment on Pig (0.03-0.06 mg/kg i.m.), “good sedation”; in the experiment on Pig (0.06-0.1 mg/kg i.m.), “very good sedation”; in the experiment with Poultry (2.0 mg/kg i.m.), “strong sedation”; in the experiment with Poultry (2.0 mg/kg p.o.), “good sedation”. In addition, the “Effect: sedation” value in the experiment with Poultry (0.01-0.1 mg/kg i.m.) is “weak sedation”; in the experiment on Poultry (0.1-0.5 mg/kg i.m.), “good sedation”; in the experiment on Poultry (0.5-1.0 mg/kg i.m.) it was “very good sedation”; with Poultry (0.5-1.0 mg/kg p.o.), “good sedation”. In addition, in the experiment with Cattle (calf) (calf, 0.04 mg/kg p.o.), the “Effect: depth of sedation” value is on record as “very good depth of sedation”. The “Effect: rousability” value with Cattle (calf) (calf, 0.04 mg/kg p.o.) is listed as “animal cannot be roused”. Also, the “Effect: sleep” value is given as “deep” with Cattle (calf) (0.008 mg/kg i.m.), “deep sleep” in the experiment with Cattle (calf) (0.009 mg/kg i.m.) and “deep sleep” in the experiment with Cattle (calf) (0.009 mg/kg i.v.). The “Effect: analgesia during and after the operation” value in the experiment on Calf is given as “good”. Further, in the experiment with Calf, the “Effect: sedation during and after the operation” value is reported as “good”.
In the case of `Fc1cccc(Br)c1N=C1NCCN1` [2-[(2-bromo-6-fluorophenyl)-imino]-imidazolidine], the bradycardiac effect entry in experiment [2] was “marked bradycardiac effect”.
